In PubChem BioAssay AID1963433 (Molecular Pharmacology Branch, DTP, NCI, 2024):
Where “and” joins values, the source holds several entries; their conditions need not be identical. Identical values can stand only once. Values belong to the compound of their own block, whether it stands above or below them.

System: 772245-204-R-J1-PDC complex spheroid growth
Experiment: Anticancer human tumor 772245-204-R-J1-PDC patient-derived rhabdomyosarcoma cell line growth inhibition [Asc]
Conditions: for viability, T/C: stronger effect = lower value
Summary of the method: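 Stromal components (HUVEC and hMSC) are co-assembled with the cancer cells into multicellular spheroids. Drugs are then added singly or paired, at concentrations falling by half-log increments from a clinically achievable maximum, capped at 10 microM without known Cmax.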

[1] = curve of first compound, second compound 0.01 µM
[2] = curve of first compound, second compound 0.0316 µM
[3] = curve of first compound, second compound 0.1 µM
[4] = curve of first compound, second compound 0.316 µM
[5] = curve of first compound, second compound 1 µM
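Further: compound exposure lasted seven days.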
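Wherever viability, T/C is given: 100% = DMSO vehicle control viability.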

- IC50 [1]: > 3000 nM
- IC50 [2]: > 3000 nM
- IC50 [3]: > 3000 nM
- IC50 [4]: > 3000 nM
- IC50 [5]: > 3000 nM
SMILES: CCN1C(C(=O)NC23CCC(C(=O)O)(CC2)CC3)C(c2cccc(Cl)c2F)C2(C(=O)Nc3cc(Cl)ccc32)C12CCCCC2 (stereo not given) + CNC(C)C(=O)NC1CN(S(=O)(=O)c2cccc(S(=O)(=O)N3CCC4CCC(C(=O)NC(c5ccccc5)c5ccccc5)N4C(=O)C(NC(=O)C(C)NC)C3)c2)CCC2CCC(C(=O)NC(c3ccccc3)c3ccccc3)N2C1=O
- viability, T/C (second compound 0.01 µM, first compound 0.00949 µM): 103%
- viability, T/C (second compound 0.01 µM, first compound 0.03 µM): 106%
- viability, T/C (second compound 0.01 µM, first compound 0.0949 µM): 111%
- viability, T/C (second compound 0.01 µM, first compound 0.3 µM): 96.1%
- viability, T/C (second compound 0.01 µM, first compound 0.949 µM): 80.3%
- viability, T/C (second compound 0.01 µM, first compound 3 µM): 77.4%
- viability, T/C (second compound 0.0316 µM, first compound 0.00949 µM): 97.7%
- viability, T/C (second compound 0.0316 µM, first compound 0.03 µM): 105%
- viability, T/C (second compound 0.0316 µM, first compound 0.0949 µM): 98.2%
- viability, T/C (second compound 0.0316 µM, first compound 0.3 µM): 90.9%
- viability, T/C (second compound 0.0316 µM, first compound 0.949 µM): 93.3%
- viability, T/C (second compound 0.0316 µM, first compound 3 µM): 75.7%
- viability, T/C (second compound 0.1 µM, first compound 0.00949 µM): 97.9%
- viability, T/C (second compound 0.1 µM, first compound 0.03 µM): 102%
- viability, T/C (second compound 0.1 µM, first compound 0.0949 µM): 88.5%
- viability, T/C (second compound 0.1 µM, first compound 0.3 µM): 91%
- viability, T/C (second compound 0.1 µM, first compound 0.949 µM): 82.2%
- viability, T/C (second compound 0.1 µM, first compound 3 µM): 65.2%
- viability, T/C (second compound 0.316 µM, first compound 0.00949 µM): 96.6%
- viability, T/C (second compound 0.316 µM, first compound 0.03 µM): 96.4%
- viability, T/C (second compound 0.316 µM, first compound 0.0949 µM): 98.6%
- viability, T/C (second compound 0.316 µM, first compound 0.3 µM): 92.3%
- viability, T/C (second compound 0.316 µM, first compound 0.949 µM): 86.8%
- viability, T/C (second compound 0.316 µM, first compound 3 µM): 105%
- viability, T/C (second compound 1 µM, first compound 0.00949 µM): 103%
- viability, T/C (second compound 1 µM, first compound 0.03 µM): 105%
- viability, T/C (second compound 1 µM, first compound 0.0949 µM): 96.2%
- viability, T/C (second compound 1 µM, first compound 0.3 µM): 89.1%
- viability, T/C (second compound 1 µM, first compound 0.949 µM): 86.4%
- viability, T/C (second compound 1 µM, first compound 3 µM): 76.3%

- IC50 (curve of first compound, second compound 0.03 µM): 188 nM
- IC50 (curve of first compound, second compound 0.0949 µM): 146 nM
- IC50 (curve of first compound, second compound 0.3 µM): 90.5 nM
- IC50 (curve of first compound, second compound 0.949 µM): 139 nM
- IC50 (curve of first compound, second compound 3 µM): 51.4 nM
SMILES: COc1c(OCCCN2CCOCC2)ccc2c3n(c(=NC(=O)c4cnc(N)nc4)nc12)CCN3 + CCN1C(C(=O)NC23CCC(C(=O)O)(CC2)CC3)C(c2cccc(Cl)c2F)C2(C(=O)Nc3cc(Cl)ccc32)C12CCCCC2
- viability, T/C (second compound 0.03 µM, first compound 0.00316 µM): 99.5%
- viability, T/C (second compound 0.03 µM, first compound 0.01 µM): 105%
- viability, T/C (second compound 0.03 µM, first compound 0.0316 µM): 83.7%
- viability, T/C (second compound 0.03 µM, first compound 0.1 µM): 61.6%
- viability, T/C (second compound 0.03 µM, first compound 0.316 µM): 41.8%
- viability, T/C (second compound 0.03 µM, first compound 1 µM): 32.3%
- viability, T/C (second compound 0.0949 µM, first compound 0.00316 µM): 105%
- viability, T/C (second compound 0.0949 µM, first compound 0.01 µM): 97.6%
- viability, T/C (second compound 0.0949 µM, first compound 0.0316 µM): 80%
- viability, T/C (second compound 0.0949 µM, first compound 0.1 µM): 57.5%
- viability, T/C (second compound 0.0949 µM, first compound 0.316 µM): 35.6%
- viability, T/C (second compound 0.0949 µM, first compound 1 µM): 24.8%
- viability, T/C (second compound 0.3 µM, first compound 0.00316 µM): 103%
- viability, T/C (second compound 0.3 µM, first compound 0.01 µM): 109%
- viability, T/C (second compound 0.3 µM, first compound 0.0316 µM): 84.7%
- viability, T/C (second compound 0.3 µM, first compound 0.1 µM): 46.6%
- viability, T/C (second compound 0.3 µM, first compound 0.316 µM): 39.1%
- viability, T/C (second compound 0.3 µM, first compound 1 µM): 30%
- viability, T/C (second compound 0.949 µM, first compound 0.00316 µM): 105%
- viability, T/C (second compound 0.949 µM, first compound 0.01 µM): 99%
- viability, T/C (second compound 0.949 µM, first compound 0.0316 µM): 77.2%
- viability, T/C (second compound 0.949 µM, first compound 0.1 µM): 55.2%
- viability, T/C (second compound 0.949 µM, first compound 0.316 µM): 37.3%
- viability, T/C (second compound 0.949 µM, first compound 1 µM): 23%
- viability, T/C (second compound 3 µM, first compound 0.00316 µM): 69.3%
- viability, T/C (second compound 3 µM, first compound 0.01 µM): 78.5%
- viability, T/C (second compound 3 µM, first compound 0.0316 µM): 57.4%
- viability, T/C (second compound 3 µM, first compound 0.1 µM): 38.1%
- viability, T/C (second compound 3 µM, first compound 0.316 µM): 29.5%
- viability, T/C (second compound 3 µM, first compound 1 µM): 26.6%

- IC50 [1]: 193 nM
- IC50 [2]: 89.5 nM
- IC50 [3]: 114 nM
- IC50 [4]: 72.6 nM
- IC50 [5]: 111 nM
SMILES: COc1c(OCCCN2CCOCC2)ccc2c3n(c(=NC(=O)c4cnc(N)nc4)nc12)CCN3 + CNC(C)C(=O)NC1CN(S(=O)(=O)c2cccc(S(=O)(=O)N3CCC4CCC(C(=O)NC(c5ccccc5)c5ccccc5)N4C(=O)C(NC(=O)C(C)NC)C3)c2)CCC2CCC(C(=O)NC(c3ccccc3)c3ccccc3)N2C1=O
- viability, T/C (second compound 0.01 µM, first compound 0.00316 µM): 108%
- viability, T/C (second compound 0.01 µM, first compound 0.01 µM): 95.2%
- viability, T/C (second compound 0.01 µM, first compound 0.0316 µM): 81.7%
- viability, T/C (second compound 0.01 µM, first compound 0.1 µM): 64.3%
- viability, T/C (second compound 0.01 µM, first compound 0.316 µM): 38.4%
- viability, T/C (second compound 0.01 µM, first compound 1 µM): 26.9%
- viability, T/C (second compound 0.0316 µM, first compound 0.00316 µM): 93.7%
- viability, T/C (second compound 0.0316 µM, first compound 0.01 µM): 112%
- viability, T/C (second compound 0.0316 µM, first compound 0.0316 µM): 78.2%
- viability, T/C (second compound 0.0316 µM, first compound 0.1 µM): 47.9%
- viability, T/C (second compound 0.0316 µM, first compound 0.316 µM): 38.8%
- viability, T/C (second compound 0.0316 µM, first compound 1 µM): 27.2%
- viability, T/C (second compound 0.1 µM, first compound 0.00316 µM): 97.4%
- viability, T/C (second compound 0.1 µM, first compound 0.01 µM): 97.2%
- viability, T/C (second compound 0.1 µM, first compound 0.0316 µM): 68.1%
- viability, T/C (second compound 0.1 µM, first compound 0.1 µM): 53.8%
- viability, T/C (second compound 0.1 µM, first compound 0.316 µM): 35.4%
- viability, T/C (second compound 0.1 µM, first compound 1 µM): 23.2%
- viability, T/C (second compound 0.316 µM, first compound 0.00316 µM): 92.9%
- viability, T/C (second compound 0.316 µM, first compound 0.01 µM): 93.8%
- viability, T/C (second compound 0.316 µM, first compound 0.0316 µM): 73.4%
- viability, T/C (second compound 0.316 µM, first compound 0.1 µM): 40.1%
- viability, T/C (second compound 0.316 µM, first compound 0.316 µM): 30.7%
- viability, T/C (second compound 0.316 µM, first compound 1 µM): 22%
- viability, T/C (second compound 1 µM, first compound 0.00316 µM): 86%
- viability, T/C (second compound 1 µM, first compound 0.01 µM): 96.6%
- viability, T/C (second compound 1 µM, first compound 0.0316 µM): 75.7%
- viability, T/C (second compound 1 µM, first compound 0.1 µM): 51.3%
- viability, T/C (second compound 1 µM, first compound 0.316 µM): 32.5%
- viability, T/C (second compound 1 µM, first compound 1 µM): 21.6%

- IC50 (compound alone, run of 10/11/2022): > 3000 nM
- IC50 (curve of compound): > 3000 nM
SMILES: CCN1C(C(=O)NC23CCC(C(=O)O)(CC2)CC3)C(c2cccc(Cl)c2F)C2(C(=O)Nc3cc(Cl)ccc32)C12CCCCC2 (stereo not given)
- viability, T/C (compound 0.00949 µM): 107% and 93.5%

- IC50 (curve of compound): 990 nM and > 1000 nM
SMILES: O=C(c1ccc(F)c(F)c1Nc1ccc(I)cc1F)N1CC(O)([C@@H]2CCCCN2)C1
- viability, T/C (compound 0.00316 µM): 108% and 99.4% and 97.4%
- viability, T/C (compound 0.01 µM): 94.5% and 97% and 98.1%
- viability, T/C (compound 0.0316 µM): 87.7% and 96.5% and 90.6%
- viability, T/C (compound 0.1 µM): 107% and 102% and 72.1%
- viability, T/C (compound 0.316 µM): 105% and 107% and 108%
- viability, T/C (compound 1 µM): 49.5% and 60.2% and 114%
